Results reported in patent US9321782B2, “Process for preparation of novel 42-O-(heteroalkoxyalkyl) rapamicin compounds with anti-proliferative properties” (MERIL LIFE SCIENCES PVT. LTD., priority 2010, dated 2016).

What was measured:
[1] = Stability analysis (HPLC purity on storage) with various concentrations of BHT at 40° C.; assay type: physicochemical; conditions: sealed container
Procedure: (§1) To check the purity of the 42-O-(heteroalkoxyalkyl) rapamycin compounds the following condition was followed by using High Performance Liquid Chromatography, Phenomenex Synergi Hydro-RP 80a (250×4.6 ) mm, 4 micron column. The mobile phase was 65:15:20 methanol:acetonitile:water mixture. The detector was set at 276 nm and the flow rate was adjusted to 1.5 mL/min. Column temperature was 40° C. 2.0 μg of 42-O-(heteroalkoxyalkyl) rapamycin compounds was injected onto the column in a volume of 5.0 μL methanol with run time of 50 min.
The inventors have also conducted the stability study of various 42-O-(heteroalkoxyalkyl) rapamycin compounds as mentioned above using various BHT concentrations. The study was conducted at 40° C. temperature in sealed container for 8 weeks.
42-O-(heteroalkoxyalkyl) rapamycin compounds obtained as per procedure described in Example 1 are respectively added with anti-oxidant, namely Butylated Hydroxytoluene (or BHT), at a concentration of 0.1%, 0.2%, 0.5%, and 1.0% (w/w) based on 100% (w/w) of 42-O-(heteroalkoxyalkyl) rapamycin compounds in sealed container to study the stability at 40° C. temperature. […] The purity data with the addition of different amounts of anti-oxidant as added to 42-O-(tetrahydrofuran-3-yl) rapamycin compound, 42-O-(oxetan-3-yl) rapamycin compound and 42-O-(tetrahydropyran-3-yl) rapamycin compound checked at different time intervals are summarized in Table 2B as below mentioned.

[2] = Stability analysis (HPLC purity on storage) without BHT at various temperatures; assay type: physicochemical; conditions: without BHT
Procedure: as §1
The purity loss was higher at increased temperature, but there was no apparent change in the impurity profile. Table 2A presents the purity of various 42-O-(heteroalkoxyalkyl) rapamycin compounds at different time intervals and temperature conditions.

Purity (%) ([1]; BHT 0.0% (w/w), 0 week): 97.5%
Purity (%) ([1]; BHT 0.0% (w/w), 2 weeks): 94.4%
Purity (%) ([1]; BHT 0.0% (w/w), 4 weeks): 93.7%
Purity (%) ([1]; BHT 0.0% (w/w), 8 weeks): 92.3%
Purity (%) ([1]; BHT 0.1% (w/w), 0 week): 97.5%
Purity (%) ([1]; BHT 0.1% (w/w), 2 weeks): 95.9%
Purity (%) ([1]; BHT 0.1% (w/w), 4 weeks): 94.3%
Purity (%) ([1]; BHT 0.1% (w/w), 8 weeks): 93.6%
Purity (%) ([1]; BHT 0.2% (w/w), 0 week): 97.6%
Purity (%) ([1]; BHT 0.2% (w/w), 2 weeks): 96.3%
Purity (%) ([1]; BHT 0.2% (w/w), 4 weeks): 95.6%
Purity (%) ([1]; BHT 0.2% (w/w), 8 weeks): 94.1%
Purity (%) ([1]; BHT 0.5% (w/w), 0 week): 97.3%
Purity (%) ([1]; BHT 0.5% (w/w), 2 weeks): 96.5%
Purity (%) ([1]; BHT 0.5% (w/w), 4 weeks): 95.9%
Purity (%) ([1]; BHT 0.5% (w/w), 8 weeks): 94.5%
Purity (%) ([1]; BHT 1.0% (w/w), 0 week): 97.4%
Purity (%) ([1]; BHT 1.0% (w/w), 2 weeks): 96.6%
Purity (%) ([1]; BHT 1.0% (w/w), 4 weeks): 95.6%
Purity (%) ([1]; BHT 1.0% (w/w), 8 weeks): 94.9%
Purity (%) ([2]; 5° C. (sealed), 00 weeks after synthesis): 97.3%
Purity (%) ([2]; 5° C. (sealed), 02 weeks after synthesis): 96.0%
Purity (%) ([2]; 5° C. (sealed), 04 weeks after synthesis): 95.4%
Purity (%) ([2]; 5° C. (sealed), 08 weeks after synthesis): 94.5%
Purity (%) ([2]; 5° C. (sealed), 12 weeks after synthesis): 93.9%
Purity (%) ([2]; 25° C. (sealed), 00 weeks after synthesis): 97.6%
Purity (%) ([2]; 25° C. (sealed), 02 weeks after synthesis): 95.7%
Purity (%) ([2]; 25° C. (sealed), 04 weeks after synthesis): 95.2%
Purity (%) ([2]; 25° C. (sealed), 08 weeks after synthesis): 94.6%
Purity (%) ([2]; 25° C. (sealed), 12 weeks after synthesis): 93.5%
Purity (%) ([2]; 25° C. (unsealed), 00 weeks after synthesis): 97.0%
Purity (%) ([2]; 25° C. (unsealed), 02 weeks after synthesis): 95.3%
Purity (%) ([2]; 25° C. (unsealed), 04 weeks after synthesis): 94.5%
Purity (%) ([2]; 25° C. (unsealed), 08 weeks after synthesis): 93.8%
Purity (%) ([2]; 25° C. (unsealed), 12 weeks after synthesis): 93.1%
Purity (%) ([2]; 40° C. (sealed), 00 weeks after synthesis): 97.5%
Purity (%) ([2]; 40° C. (sealed), 02 weeks after synthesis): 94.4%
Purity (%) ([2]; 40° C. (sealed), 04 weeks after synthesis): 93.7%
Purity (%) ([2]; 40° C. (sealed), 08 weeks after synthesis): 92.3%
Purity (%) ([2]; 40° C. (sealed), 12 weeks after synthesis): 91.6%
Structure (SMILES): COC1CC(C[C@H](C)[C@@H]2CC(=O)[C@H](C)/C=C(\C)C(O)[C@@H](OC)C(=O)[C@H](C)C[C@H](C)/C=C/C=C/C=C(\C)[C@@H](OC)C[C@@H]3CC[C@@H](C)[C@@](O)(O3)C(=O)C(=O)N3CCCC[C@H]3C(=O)O2)CCC1OC1CCCOC1 (stereo partly shown) [Merilimus-3, 42-O-(tetrahydropyran-3-yl) rapamycin]
